Source: ChEMBL document CHEMBL6109100, “Discovery of novel benzoxazole analogues as potential anticancer agent selectively targeting aromatase” (Bioorg Med Chem, 2025)

Columns and labels:
[1] = tested on: MCF7; test: Cytotoxicity against human MCF7 cells assessed as reduction in cell viability measured after 48 hrs by SRB assay; assay type: functional
[2] = tested on: MDA-MB-231; test: Cytotoxicity against human MDA-MB-231 cells assessed as reduction in cell viability measured after 48 hrs by SRB assay; assay type: functional
[3] = tested on: BT-549; test: Cytotoxicity against human BT-549 cells assessed as reduction in cell viability measured after 48 hrs by SRB assay; assay type: functional
[4] = tested on: T47D; test: Cytotoxicity against human T47D cells assessed as reduction in cell viability measured after 48 hrs by SRB assay; assay type: functional
[5] = tested on: MDA-MB-468; test: Cytotoxicity against human MDA-MB-468 cells assessed as reduction in cell viability measured after 48 hrs by SRB assay; assay type: functional
[6] = Cytotoxicity against African green monkey Vero cells assessed as reduction in cell viability measured after 48 hrs by SRB assay; assay type: toxicity, cell-based; details: chlorocebus sabaeus
[7] = biological target: T1, Aromatase (Homo sapiens, UniProt P11511); test: Inhibition of aromatase in human MCF7 cells using androstenedione as substrate measured after 2 hrs; assay type: cell-based
T1 sequence (P11511 whole entry): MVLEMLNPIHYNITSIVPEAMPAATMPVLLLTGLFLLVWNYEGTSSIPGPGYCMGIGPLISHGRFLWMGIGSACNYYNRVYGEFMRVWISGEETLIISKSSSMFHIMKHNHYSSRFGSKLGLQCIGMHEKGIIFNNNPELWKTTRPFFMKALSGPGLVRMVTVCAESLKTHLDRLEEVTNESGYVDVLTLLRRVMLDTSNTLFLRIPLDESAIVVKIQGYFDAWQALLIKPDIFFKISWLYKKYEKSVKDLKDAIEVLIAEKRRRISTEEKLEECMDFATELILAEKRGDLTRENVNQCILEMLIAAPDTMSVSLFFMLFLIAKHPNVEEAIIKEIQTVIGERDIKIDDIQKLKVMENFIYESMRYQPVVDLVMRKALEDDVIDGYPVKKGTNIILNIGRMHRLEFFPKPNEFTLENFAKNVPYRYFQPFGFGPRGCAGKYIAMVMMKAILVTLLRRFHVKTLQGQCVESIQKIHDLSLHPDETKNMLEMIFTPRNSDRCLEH

[8] = biological target: Poly [ADP-ribose] polymerase 2 (Homo sapiens, UniProt Q9UGN5); test: Inhibition of PARP-2 (unknown origin)
Sequence of Poly [ADP-ribose] polymerase 2 (Q9UGN5 whole entry): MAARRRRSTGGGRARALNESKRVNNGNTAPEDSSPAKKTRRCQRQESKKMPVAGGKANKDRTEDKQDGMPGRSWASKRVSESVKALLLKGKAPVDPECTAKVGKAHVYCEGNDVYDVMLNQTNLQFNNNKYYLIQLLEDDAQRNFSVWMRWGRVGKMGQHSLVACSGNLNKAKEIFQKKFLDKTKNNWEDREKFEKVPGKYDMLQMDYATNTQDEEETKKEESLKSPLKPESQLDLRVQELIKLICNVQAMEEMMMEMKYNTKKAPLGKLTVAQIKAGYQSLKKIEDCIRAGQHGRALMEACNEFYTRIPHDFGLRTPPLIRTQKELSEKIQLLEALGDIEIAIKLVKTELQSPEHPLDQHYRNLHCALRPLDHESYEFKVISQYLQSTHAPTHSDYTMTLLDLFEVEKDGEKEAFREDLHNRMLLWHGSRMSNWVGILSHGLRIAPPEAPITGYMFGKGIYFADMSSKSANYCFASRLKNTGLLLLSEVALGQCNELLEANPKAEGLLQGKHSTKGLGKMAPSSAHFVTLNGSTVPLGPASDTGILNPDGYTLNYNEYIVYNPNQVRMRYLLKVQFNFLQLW

[9] = biological target: Histone deacetylase; test: Inhibition of HDAC (unknown origin); assay type: protein assay, Homo sapiens
[10] = biological target: Carbonic anhydrase 2 (Homo sapiens, UniProt P00918); test: Inhibition of CA2 (unknown origin) using p-nitrophenyl acetate as substrate preincubated for 10 mins followed by substrate addition and measured after 30 mins by spectrophotometry
[11] = tested on: RPMI-8226; test: Cytotoxicity against human RPMI-8226 cells assessed as reduction in cell viability measured after 48 hrs by SRB assay; assay type: functional, cell-based; details: RPMI-8226, 48 h
[12] = tested on: MDA-MB-231; test: Cytotoxicity against human MDA-MB-231 cells assessed as reduction in cell viability measured after 48 hrs by MTT assay; assay type: functional, cell-based; details: MDA-MB-231, 48 h
[13] = biological target: T2, Aromatase (Rattus norvegicus, UniProt P22443); test: Inhibition of rat aromatase measured after 2 hrs by ELISA
T2 sequence (P22443 whole entry): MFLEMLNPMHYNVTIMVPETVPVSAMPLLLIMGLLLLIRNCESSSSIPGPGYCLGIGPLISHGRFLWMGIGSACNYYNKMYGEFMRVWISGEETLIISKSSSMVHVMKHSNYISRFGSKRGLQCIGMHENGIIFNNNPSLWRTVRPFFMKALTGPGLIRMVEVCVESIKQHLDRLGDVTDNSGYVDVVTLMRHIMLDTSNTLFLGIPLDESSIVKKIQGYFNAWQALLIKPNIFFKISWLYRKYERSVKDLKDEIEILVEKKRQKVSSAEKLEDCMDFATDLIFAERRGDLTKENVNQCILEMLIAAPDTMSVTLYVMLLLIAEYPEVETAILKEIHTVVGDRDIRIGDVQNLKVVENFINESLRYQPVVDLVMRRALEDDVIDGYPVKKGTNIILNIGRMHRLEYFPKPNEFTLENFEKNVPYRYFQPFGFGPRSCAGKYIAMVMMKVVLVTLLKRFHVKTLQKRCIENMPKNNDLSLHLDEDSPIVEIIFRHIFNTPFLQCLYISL

Q: Which GI50 [1] does the source give for CS(=O)(=O)N1CCN(Cc2nc3cc(F)ccc3o2)CC1 here?
A: Its GI50 is 29.8 µM.

Q: For O=S(=O)(c1ccccc1)N1CCN(Cc2nc3cc(F)ccc3o2)CC1, which GI50 [1] is on record?
A: The GI50 was 8.56 µM.

Q: With O=S(=O)(c1ccc(F)cc1)N1CCN(Cc2nc3cc(F)ccc3o2)CC1 as the compound, how does the GI50 [1] read?
A: The GI50 was 6.52 µM.

Q: With O=[N+]([O-])c1cccc(S(=O)(=O)N2CCN(Cc3nc4cc(F)ccc4o3)CC2)c1 as the compound, how does the GI50 [1] read?
A: The GI50 was 3.25 µM.

Q: With O=[N+]([O-])c1ccccc1S(=O)(=O)N1CCN(Cc2nc3cc(F)ccc3o2)CC1 as the compound, how does the GI50 [1] read?
A: The GI50 was 5.95 µM.

Q: With O=S(=O)(c1cccc2ccccc12)N1CCN(Cc2nc3cc(F)ccc3o2)CC1 as the compound, how does the GI50 [1] read?
A: Its GI50 is 12.5 µM.

Q: Which GI50 [1] does the source give for CN(C)S(=O)(=O)N1CCN(Cc2nc3cc(F)ccc3o2)CC1 here?
A: Its GI50 is 18.3 µM.

Q: With CCS(=O)(=O)N1CCN(Cc2nc3cc(F)ccc3o2)CC1 as the compound, how does the GI50 [1] read?
A: The GI50 was 14.4 µM.

Q: Which GI50 [1] does the source give for O=[N+]([O-])c1ccc(S(=O)(=O)N2CCN(Cc3nc4cc(F)ccc4o3)CC2)cc1 here?
A: Its GI50 is 1.02 µM.

Q: For O=Cc1ccc(S(=O)(=O)N2CCN(Cc3nc4cc(F)ccc4o3)CC2)cc1, which GI50 [1] is on record?
A: Its GI50 is 2.45 µM.

Q: For COc1ccccc1S(=O)(=O)N1CCN(Cc2nc3cc(F)ccc3o2)CC1, which GI50 [1] is on record?
A: Its GI50 is 4.63 µM.

Q: For O=S(=O)(N1CCCCC1)N1CCN(Cc2nc3cc(F)ccc3o2)CC1, which GI50 [1] is on record?
A: The GI50 was 9.33 µM.

Q: With O=S(=O)(N1CCOCC1)N1CCN(Cc2nc3cc(F)ccc3o2)CC1 as the compound, how does the GI50 [1] read?
A: The GI50 was 10.3 µM.

Q: With CC(C)(C)c1ccc(S(=O)(=O)N2CCN(Cc3nc4cc(F)ccc4o3)CC2)cc1 as the compound, how does the GI50 [1] read?
A: Its GI50 is 0.22 µM.

Q: And the GI50 [2]?
A: Its GI50 is 0.49 µM.

Q: What about the GI50 [3] of the same compound?
A: Its GI50 is 1.73 µM.

Q: And the GI50 [4]?
A: The GI50 was 2.55 µM.

Q: What about the GI50 [5] of the same compound?
A: Its GI50 is 0.87 µM.

Q: What about the GI50 at 48 h [6] of the same compound?
A: The GI50 at 48 h was 67.1 µM.

Q: And the IC50 [7]?
A: Its IC50 is 0.0649 µM.

Q: What about the IC50 [8] of the same compound?
A: The IC50 was 0.739 µM.

Q: And the IC50 [9]?
A: Its IC50 is 1.125 µM.

Q: What about the IC50 [10] of the same compound?
A: Its IC50 is 4.1 µM.

Q: For CC(C)S(=O)(=O)N1CCN(Cc2nc3cc(F)ccc3o2)CC1, which GI50 [1] is on record?
A: Its GI50 is 21.6 µM.

Q: Which GI50 [1] does the source give for Cc1ccc(S(=O)(=O)N2CCN(Cc3nc4cc(F)ccc4o3)CC2)cc1 here?
A: The GI50 was 1.73 µM.

Q: Which GI50 [1] does the source give for CN1CCN(S(=O)(=O)N2CCN(Cc3nc4cc(F)ccc4o3)CC2)CC1 here?
A: Its GI50 is 7.37 µM.

Q: For O=S(=O)(C1CC1)N1CCN(Cc2nc3cc(F)ccc3o2)CC1, which GI50 [1] is on record?
A: The GI50 was 25.1 µM.

Q: With Cc1nc(Nc2nc3ccccc3o2)nc(-c2cccc([N+](=O)[O-])c2)c1C(=O)Nc1ccc(F)cc1Cl as the compound, how does the IC50 [11] read?
A: Its IC50 is 0.72 µM.

Q: Which IC50 [12] does the source give for CC(C)(C#N)c1cc(Cn2cncn2)cc(C(C)(C)C#N)c1 [ANASTROZOLE] here?
A: The IC50 was 1.21 µM.

Q: What about the IC50 [13] of the same compound?
A: Its IC50 is 3.93 µM.

Q: Which results are given for COc1cccc2c1C(=O)c1c(O)c3c(c(O)c1C2=O)C[C@@](O)(C(=O)CO)C[C@@H]3O[C@H]1C[C@H](N)[C@H](O)[C@H](C)O1 [DOXORUBICIN]?
A: GI50 [1]: 0.89 µM; GI50 [2]: 0.14 µM; GI50 [3]: 2.01 µM; GI50 [4]: 3.78 µM; GI50 [5]: 0.53 µM; GI50 at 48 h [6]: 143 µM

Q: What does the source list for N#Cc1ccc(C(c2ccc(C#N)cc2)n2cncn2)cc1 [LETROZOLE]?
A: IC50 [12]: 1.27 µM; IC50 [13]: 0.29 µM
